Test [1] concerns the target T1, P2Y12 receptor (Homo sapiens, UniProt Q9H244). Put plainly: Human P2Y12 recombinant cell membrane binding assay with 33P 2MeS-ADP (Assay 3). Set-up: expressed in transfected cells; host or cells: HEK cells. Particulars: highest concentration tested 1 μM; read-out: [33P]-2MeS-ADP Binding to Recombinant Human P2Y12 Membranes (Assay 3) % Inhibition.
For test [2], the target named is T1, P2Y12 receptor. The test is described as above. Set-up: expressed in transfected cells; host or cells: HEK cells. Particulars: for IC50 / Ki: HEK cell membranes expressing P2Y12, multiple lines = multiple runs; for [33P]-2MeS-ADP Binding to Recombinant Human P2Y12 Membranes (Assay 3) % Inhibition / inhibition at 10 µM: highest concentration tested 10 μM; for inhibition at 10 µM: read-out: [33P]-2MeS-ADP Binding to Recombinant Human P2Y12 Membranes (Assay 3) % Inhibition. As to the method: 3. Human P2Y12 Recombinant Cell Membrane Binding Assay with ^33P 2MeS-ADP.
The ability of a test compound to bind to the P2Y12 receptor was evaluated in a recombinant cell membrane binding assay. In this competitive binding assay, the test compound competed against a radiolabelled agonist for binding to the P2Y12 receptor, expressed on the cell membrane. Inhibition of binding of the labeled material was measured and correlated to the amount and potency of the test compound. Data from this assay are presented in Table F. This binding assay is a modification of the procedure in Takasaki, J. et. al, Mol. Pharmacol., 2001, Vol. 60, pg. 432.
HEK cells were transfected with the pDONR201P2Y12 vector and cultured in MEM with GlutaMAX I, Earle's salts, 25 mM HEPES (Gibco # 42360-032) containing 10% dialyzed FBS (Gibco # 26400-044), 100 μM nonessential amino acids (Gibco # 11140-050), 1 mM sodium pyruvate (Gibco # 11360-070), 0.05% geneticin (Gibco #10131-027), 3 μg/mL blasticidin (Fluka brand from Sigma # 15205), and 0.5 μg/mL puromycin (Sigma # P-8833).
Confluent cells were washed once with cold DPBS (Gibco # 14190-136). Fresh DPBS was added and the cells were scraped and centrifuged at 500×g for 5 minutes at 4° C. The cell pellets were resuspended in TEE buffer (25 mM Tris, 5 mM EDTA, 5 mM EGTA) containing 1 protease inhibitor cocktail tablet (Roche # 1 873 580) per 50 mL (called TEE+Complete) and can be flash frozen at this point.
In one embodiment, frozen cell pellets were used to prepare the membranes. In that embodiment, the frozen cell pellets were thawed on ice. In another embodiment, cell pellets may be used without flash freezing before moving on to the next step.
Cell pellets were resuspended in TEE buffer+Complete and homogenized in a glass dounce for 12 strokes. The cell suspension was centrifuged at 500×g for 5 minutes at 4° C. The supernatant was saved and centrifuged at 20,000×g for 20 minutes at 4° C. This supernatant was discarded and the cell pellet resuspended in TEE buffer+Complete and homogenized in a glass dounce for 12 strokes. This suspension was centrifuged at 20,000×g for 20 minutes at 4° C. and the supernatant discarded. The pellet was resuspended in assay buffer (50 mM Tris, 100 mM NaCl, 1 mM EDTA) containing one protease inhibitor cocktail tablet per 50 mL, and can be flash frozen as 1 mL aliquots at this point.
Dry compounds were diluted as 10 mM DMSO stocks and tested in a seven-point, three-fold dilution series run in triplicate beginning at 10 μM, final concentration. A 1 mM DMSO intermediate stock was made in a dilution plate and from this the seven dilutions were made to 5× the final concentration in assay buffer containing 0.02% BSA.
To a polypropylene assay plate (Costar # 3365) the following were added: a) 30 μL of assay buffer containing one protease inhibitor cocktail tablet per 50 mL; b) 30 μL of 1 nM ^33P 2MeS-ADP made in assay buffer containing 0.02% BSA and 12.5 mg/mL ascorbic acid; 30 μL of cold 1.5 μM 2MeS-ADP for the positive control wells, or assay buffer containing 0.02% BSA and 12.5 mg/mL ascorbic acid for the negative control wells, or 5× drug dilution; and 60 μL of 1 ug/well membranes.
The plates were incubated at room temperature for 1 hour. The reaction was stopped using a cell harvester to transfer the reaction mixture onto GF/B UniFilter plates (Perkin Elmer # 6005177), and washed three times with wash buffer (50 mM Tris), filtering between each wash. The filter plates were dried for approximately 20 minutes in an oven at 50° C. Back seals were adhered to the filter plates and 25 uL of Microscint 20 scintillation fluid (Perkin Elmer # 6013621) were added. The filter plates were sealed, shaken for 30 minutes, and counted on a Top Count. Data were analyzed using a four-parameter curve fit with a fixed minimum and maximum experimentally defined as the average positive and negative controls on each plate, and with a hill slope equal to one.

Test [3] concerns the target T1, P2Y12 receptor. Put plainly: Inhibition of [33P]2MeS-ADP binding to washed human platelet membranes (Assay 1). Also noted: the P2Y12 receptor, which is found on the surface of platelets; tissue Interstate Blood bank, Memphis, Tenn; host or cells: human platelets from platelet rich plasma. Particulars: for inhibition at 10 µM: highest concentration tested 10 μM. As to the method: 1. Inhibition of [^33P]2MeS-ADP Binding to Washed Human Platelet Membranes. The ability of a test compound to bind to the P2Y12 receptor was evaluated in a platelet membrane binding assay. In this competitive binding assay, the test compound competed against a radiolabelled agonist for binding to the P2Y12 receptor, which is found on the surface of platelets. Inhibition of binding of the labeled material was measured and correlated to the amount and potency of the test compound. Data from this assay are presented in Table F. Platelet rich plasma (“PRP”) was obtained from the Interstate Blood bank, Memphis, Tenn. Platelet rich plasma was prepared from blood units collected in ACD ((prepared by (1) combining: 2.5 g sodium citrate (Sigma S-4641); 1.5 g citric acid (Sigma C-0706); and, 2.0 g dextrose (Sigma G-7528); (2) bringing pH to 4.5; and (3) adding water to bring volume to 100 mL) and using the light spin protocol; this protocol involves centrifugation at room temperature for approximately 20 minutes at speeds up to 160×g. Platelet rich plasma is supplied in units of approximately 200 ml. Each unit is distributed into four 50 mL polypropylene conical tubes for centrifugation, Blood from each donor is maintained separately.
The 50 mL tubes were centrifuged for 15 minutes at 1100 rpm in Sorvall RT6000D (with H1000B rotor). Internal centrifuge temperature was maintained at approximately room temperature (22-24° C.). This spin pelleted cellular components remaining from the PRP preparation. The supernatant was decanted into fresh 50 mL tubes. To avoid carry over of cellular components following the room temperature centrifugation, approximately 5 mL of PRP was left in the tube and discarded. The tubes were capped and inverted 2-3 times and allowed to stand at room temperature for at least 15 minutes following inversion.
Optionally, a Coulter Counter may be used to count platelets from the resting samples during the resting phase. Normal human platelet counts are expected to range from 200,000 to 400,000 per μL of PRP supernatant.
The 50 mL tubes containing PRP supernatant were centrifuged for 15 minutes at 2300-2400 rpm to loosely pellet the platelets. The supernatant from this spin was decanted immediately into a clean cell culture bottle (Corning bottle) and saved in case further centrifugation was needed. The pellet of each tube was resuspended in 2-4 mL of Wash buffer (pH 6.5) (1 L prepared new daily—134 mM NaCl (Sigma S-5150); 3 mM KCl (Sigma P-9333); 1 mM CaCl2 (JT Baker 1311-01); 2 mM MgCl2 (Sigma M-2670); 5 mM glucose (EM 4074-2); 0.3 mM NaH2PO4 (Sigma S-9638)/12 mM NaHCO3 (J T Baker 3506-01); 5 mM HEPES pH 7.4 (Gibco 12379-012); 0.35% BSA (Sigma A-7906); 330 mg Heparin (bovine lung, Sigma H-4898); and 30 mL of ACD) by repeated gentle aspiration using disposable polypropylene sample pipettes.
Wash buffer (pH 6.5) was added to each tube to bring the volume to approximately 40 mL. Each tube was incubated for at least 15 minutes at 37° C.
The tubes were then centrifuged again for 15 minutes at 2300-2400 rpm to loosely pellet the platelets. The supernatant was decanted and discarded. The pellet was resuspended in 2-4 mL of Assay buffer (pH 7.4) (1 L volume—134 mM NaCl; 3 mM KCl; 1 mM CaCl2; 2 mM MgCl2; 5 mM glucose; 0.3 mM NaH2PO4/12 mM NaHCO3; 5 mM HEPES pH 7.4; and 0.35% BSA) by repeated aspiration using disposable polypropylene sample pipettes.
The pooled platelet preparation was counted using a Coulter Counter. The final concentration of platelets was brought to 1×10^6 per μL using Assay buffer pH 7.4. The platelets were rested for a minimum of 45 minutes at 37° C. before use in the assay.
In one embodiment, the compounds were tested in 96-well microtiter filterplates (Millipore Multiscreen-FB opaque plates, #MAFBNOB50). These plates were used in the assay and pre-wet with 50 μL of Assay buffer pH 7.4 then filtered through completely with a Millipore plate vacuum. […]

[4] abbreviates: washed human platelet membranes.

Where “and” joins values, the source holds several entries; their conditions need not be identical. Equal entries are not always repeated. Bounds are passed on as bounds.

T1 sequence (Q9H244 whole entry): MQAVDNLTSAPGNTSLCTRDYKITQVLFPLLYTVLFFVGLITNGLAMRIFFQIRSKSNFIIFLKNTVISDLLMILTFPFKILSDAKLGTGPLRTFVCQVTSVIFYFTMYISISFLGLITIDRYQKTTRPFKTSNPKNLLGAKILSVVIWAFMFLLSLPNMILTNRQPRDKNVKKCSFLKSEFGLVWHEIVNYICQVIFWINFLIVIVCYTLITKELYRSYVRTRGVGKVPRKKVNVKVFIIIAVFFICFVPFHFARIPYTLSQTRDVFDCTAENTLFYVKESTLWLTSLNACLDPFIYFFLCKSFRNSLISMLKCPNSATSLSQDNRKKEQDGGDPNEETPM

A word on the inhibition: it is the drop in the measured response relative to a control, in per cent. A word on the IC50: it is the concentration needed to halve the response being measured. The term Ki denotes a dissociation constant, usually derived from enzyme kinetics or from competition with a known ligand. As to `CCc1cc2c(N3CCN(C(=O)c4ccc(-c5ccccc5)cc4)CC3)nc(NC[C@H](O)CO)nc2s1` [Example 26, (2S)-3-({4-[4-(1,1′-biphenyl-4-ylcarbonyl)piperazin-1-yl]-6-ethylthieno[2,3-]pyrimidin-2-yl}amino)propane-1,2-diol], at P2Y12 receptor [1], the inhibition at 1 µM turned out to be 90%. At P2Y12 receptor [2], the IC50 was 20 nM and 61 nM and 47 nM; the Ki is 10 nM and 35 nM and 27 nM; the “[33P]-2MeS-ADP Binding to Recombinant Human P2Y12 Membranes (Assay 3) % Inhibition” value (shortened to “[33P]-2MeS-ADP Binding … (Assay 3) % Inhibition”) turned out to be 94.85%; the inhibition at 10 µM was found to be 98.6%.
Take `CCc1cc2c(N3CCN(C(=O)c4ccc(-c5ccccc5)cc4)CC3)nc(NC(CO)CO)nc2s1` [Example 31, 2-({4-[4-(1,1′-biphenyl-4-ylcarbonyl)piperazin-1-yl]-6-ethylthieno[2,3-d]pyrimidin-2-yl}amino)propane-1,3-diol]: the inhibition at 1 µM at P2Y12 receptor [1] is 93%. Moreover, on P2Y12 receptor [2], the IC50 was 21 nM and the inhibitory constant (Ki) is 12 nM.
Regarding `CCc1cc2c(N3CCN(C(=O)Cc4ccccc4)CC3)nc(NCCCO)nc2s1` [Example 9, 3-({6-Ethyl-4-[4-(phenylacetyl)piperazin-1-yl]thieno[2,3-d]pyrimidin-2-yl}amino)propan-1-ol], at P2Y12 receptor [3], at 10 µM the inhibition was 75%. In addition, on P2Y12 receptor [3] (setting [4]), the half-maximal inhibitory concentration (IC50) was 3400 nM and the Ki worked out at 3210 nM.
`CCc1cc2c(N3CCN(C(=O)Cc4ccccc4)CC3)nc(NCc3cccc(F)c3)nc2s1` [Example 14, 6-Ethyl-N-(3-fluorobenzyl)-4-[4-(phenylacetyl)piperazin-1-yl]thieno[2,3-d]pyrimidin-2-amine] yielded an inhibition at 10 µM on P2Y12 receptor [3] of 39.9%. In addition, the IC50 on P2Y12 receptor [3] (setting [4]) is above 10000 nM.
Take `CCc1cc2c(N3CCN(C(=O)c4ccc(-c5ccccc5)cc4)CC3)nc(NC[C@@H](O)CO)nc2s1` [Example 27, (2R)-3-({4-[4-(1,1′-biphenyl-4-ylcarbonyl)piperazin-1-yl]-6-ethylthieno[2,3-d]pyrimidin-2-yl}amino)propane-1,2-diol]: at P2Y12 receptor [1], the inhibition at 1 µM was 92%. Besides, on P2Y12 receptor [2], the IC50 is 10 nM and 48 nM and 43 nM; the Ki was 10 nM and 28 nM and 25 nM; the “[33P]-2MeS-ADP Binding … (Assay 3) % Inhibition” value amounted to 93.86%; the inhibition at 10 µM stood at 100%.
As to `CCc1cc2c(N3CCN(C(=O)c4cccc(-c5ccccc5)c4)CC3)nc(NC[C@H](O)CO)nc2s1` [Example 29, (2S)-3-({4-[4-(1,1′-biphenyl-3-ylcarbonyl)piperazin-1-yl]-6-ethylthieno[2,3-d]pyrimidin-2-yl}amino)propane-1,2-diol], at P2Y12 receptor [1], the inhibition at 1 µM is 89%. At P2Y12 receptor [2], the IC50 was 68 nM and 50 nM and 132 nM; the inhibitory constant (Ki) is 36 nM and 30 nM and 76 nM; the “[33P]-2MeS-ADP Binding … (Assay 3) % Inhibition” value stood at 93.19%; the inhibition at 10 µM worked out at 97.3%.
On P2Y12 receptor [3], `CCc1cc2c(N3CCN(C(=O)Cc4ccccc4)CC3)nc(NCc3ccc(F)cc3)nc2s1` [Example 13, 6-Ethyl-N-(4-fluorobenzyl)-4-[4-(phenylacetyl)piperazin-1-yl]thieno[2,3-d]pyrimidin-2-amine] displayed an inhibition at 10 µM of 45.6%. At P2Y12 receptor [3] (setting [4]), the IC50 is above 10000 nM.
Take `CCc1cc2c(N3CCN(C(=O)Cc4ccccc4)CC3)nc(NCCO)nc2s1` [Example 11, 2-({6-Ethyl-4-[4-(phenylacetyl)piperazin-1-yl]thieno[2,3-d]pyrimidin-2-yl}amino)ethanol]: the inhibition at 1 µM on P2Y12 receptor [1] is 51%. Also, on P2Y12 receptor [2], the IC50 is 1130 nM and 1190 nM and 905 nM; the inhibition constant (Ki) is 650 nM and 687 nM and 905 nM; the “[33P]-2MeS-ADP Binding … (Assay 3) % Inhibition” value stood at 82.93%; the inhibition at 10 µM is 76.7%.
Turning to `CCc1cc2c(N3CCN(C(=O)c4cccc(-c5ccccc5)c4)CC3)nc(NC[C@@H](O)CO)nc2s1` [Example 30, (2R)-3-({4-[4-(1,1′-biphenyl-3-ylcarbonyl)piperazin-1-yl]-6-ethylthieno[2,3-d]pyrimidin-2-yl}amino)propane-1,2-diol], on P2Y12 receptor [1], the inhibition at 1 µM came out at 88%. Further, at P2Y12 receptor [2], the 50% inhibitory concentration (IC50) is 63 nM and 80 nM and 105 nM; the Ki was 33 nM and 50 nM and 61 nM; the “[33P]-2MeS-ADP Binding … (Assay 3) % Inhibition” value was 96.44%; the inhibition at 10 µM came to 97.7%.

The values above are taken from patent publication US20080194590A1, “4-Piperazinylthieno [2,3-D] Pyrimidine Compounds as Platelet Aggregation Inhibitors” (Pfizer Inc, priority 2005, published 2008).
